Data from patent US11840543B2, “Compounds and uses” (The University of Queensland, priority 2017, dated 2023).

Target: T1, NLRP3 (Mus musculus, UniProt Q8R4B8)
T1 construct: Macrophages from C57BL/6 mice were differentiated from bone marrow; endogenous in cells; host or cells: primary bone marrow-derived macrophages (BMDM) from C57BL/6 mice
Experiment: NLRP3 inflammasome assay: IL-1β secretion from LPS-primed, ATP-stimulated murine BMDM (Table 1)
Type: cell-based, murine (C57BL/6 mice)
Details: ATP 2.5 mM 1 h, ELISA, read-out: IC50 (NLRP3 inhibitory activity)
Procedure: The NLRP3-inhibitory effect of a number of the above compounds was tested by measuring the IL-1β secretion from murine bone marrow derived macrophages (BMDM) primed with lipopolysaccharide (LPS), treated with test compound (to a maximum concentration of 200 μM) and finally stimulated with the NLRP3 stimulus ATP. The half-maximal inhibitory concentration (IC50) was determined for each compound and compared to a number of comparative examples (CE 1-10) including commercially available oral sulphonylureas (CE1-6) and the known NLRP3 inhibitor MCC 950 (CE7). The experimental protocol was as follows.
The University of Queensland Animal Ethics Committee approved all experimental protocols involving mice.
NLRP3 INFLAMMASOME ASSAY: BMDM were seeded at 1×10^6 cells/mL in 96 well plates. The following day the overnight medium was replaced with Opti-MEM® reduced serum medium (Life Technologies) and cells were stimulated with 100 ng/mL ultrapure E. coli K12 LPS (Invivogen) for 3 h. Compounds were prepared from a 10 mM stock by serial dilution in 80% DMSO/20% 10 mM ammonium bicarbonate. […] IL-1β levels in cell-free supernatants were analysed by ELISA (ReadySetGo!® eBioscience).

T1 sequence (Q8R4B8 whole entry): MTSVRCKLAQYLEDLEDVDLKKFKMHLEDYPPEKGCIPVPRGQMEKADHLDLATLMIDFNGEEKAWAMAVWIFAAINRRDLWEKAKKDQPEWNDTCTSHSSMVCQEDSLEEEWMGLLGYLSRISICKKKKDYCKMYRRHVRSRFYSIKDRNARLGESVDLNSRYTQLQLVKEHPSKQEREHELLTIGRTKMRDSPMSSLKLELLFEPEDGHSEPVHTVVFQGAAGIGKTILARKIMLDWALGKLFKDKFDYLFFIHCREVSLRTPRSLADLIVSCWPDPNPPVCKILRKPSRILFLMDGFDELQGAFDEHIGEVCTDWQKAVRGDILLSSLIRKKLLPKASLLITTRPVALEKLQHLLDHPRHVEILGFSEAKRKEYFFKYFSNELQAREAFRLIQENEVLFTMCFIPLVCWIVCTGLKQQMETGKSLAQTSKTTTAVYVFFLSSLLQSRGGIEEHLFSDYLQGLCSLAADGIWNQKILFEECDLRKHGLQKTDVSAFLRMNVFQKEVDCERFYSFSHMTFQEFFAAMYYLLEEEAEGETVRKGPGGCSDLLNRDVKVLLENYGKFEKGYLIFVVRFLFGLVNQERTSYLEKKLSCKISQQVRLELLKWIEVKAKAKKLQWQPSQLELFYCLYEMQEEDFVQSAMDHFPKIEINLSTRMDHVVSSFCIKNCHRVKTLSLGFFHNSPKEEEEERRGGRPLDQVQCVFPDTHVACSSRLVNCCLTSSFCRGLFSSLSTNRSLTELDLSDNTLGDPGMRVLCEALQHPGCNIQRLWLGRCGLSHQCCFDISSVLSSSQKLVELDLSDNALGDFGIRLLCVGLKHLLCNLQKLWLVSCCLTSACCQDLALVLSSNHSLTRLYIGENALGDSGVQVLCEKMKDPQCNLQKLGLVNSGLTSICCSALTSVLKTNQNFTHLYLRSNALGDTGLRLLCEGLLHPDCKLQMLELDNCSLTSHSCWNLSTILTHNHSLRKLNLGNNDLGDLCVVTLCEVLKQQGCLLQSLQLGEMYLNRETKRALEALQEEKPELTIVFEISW

IC50 [nM]	SMILES
> 50000	Cc1cc(C(=O)NCCc2ccc(S(=O)(=O)NC(=O)NN3CCCCCC3)cc2)no1 [CE4, Glisoxepide]
> 50000	CCC1=C(C)CN(C(=O)NCCc2ccc(S(=O)(=O)NC(=O)N[C@H]3CC[C@H](C)CC3)cc2)C1=O [CE6, Glimepiride]
> 200000	CC(=O)c1ccc(S(=O)(=O)NC(=O)NC2CCCCC2)cc1 [CE1, Acetohexamide]
> 200000	Cc1cnc(C(=O)NCCc2ccc(S(=O)(=O)NC(=O)NC3CCCCC3)cc2)cn1 [CE3, Glipizide]
< 1000	O=C(Nc1c2c(cc3c1CCC3)CCC2)NS(=O)(=O)c1ccc2c(c1)CCC2 [CE9]
< 1000	Cc1cnc(C(=O)NCCc2ccc(S(=O)(=O)NC(=O)Nc3c4c(cc5c3CCC5)CCC4)cc2)cn1 [Example 3, N-(4-(N-((1,2,3,5,6,7-Hexahydro-s-indacen-4-yl)carbamoyl)sulfamoyl)phenethyl)-5-methylpyrazine-2-carboxamide]
< 1000	Nc1ccc(S(=O)(=O)NC(=O)Nc2c3c(cc4c2CCC4)CCC3)cc1 [CE8]
< 1000	O=C(Nc1c2c(cc3c1CCC3)CCC2)NS(=O)(=O)c1ccc([N+](=O)[O-])cc1 [CE10]
> 50000	COc1ccc2c(c1)C(=O)N(CCc1ccc(S(=O)(=O)NC(=O)NC3CCCCC3)cc1)C(=O)C2(C)C [CE5, Gliquidone]
< 1000	CC(=O)c1ccc(S(=O)(=O)NC(=O)Nc2c3c(cc4c2CCC4)CCC3)cc1 [Example 1, 4-Acetyl-N-((1,2,3,5,6,7-hexahydro-s-indacen-4-yl)carbamoyl) benzenesulfonamide]

System: MIN6 cells
Experiment: MIN6 insulin assay (insulin secretion, radioimmunoassay)
Type: cell-based
Details: 10 μM test compound, 2.8 mM glucose KRB, 1 h; FIG. 1
Procedure: To confirm the insulinotropic properties of the compounds of the invention, their ability to stimulate insulin secretion from MIN6 cells at a single concentration (10 μM) was tested using the following protocol. The tests were conducted by the Garvan Institute of Medical Research, Sydney, Australia.
MIN6 INSULIN ASSAY PROTOCOL: MIN6 cells (passage 29-37) were incubated for 1 h in Krebs-Ringer buffer (KRB) containing 2.8 mM glucose. The cells were then stimulated for 1 h in either 2.8 mM glucose KRB, 20 mM glucose KRB, or 2.8 mM glucose KRB plus test compound. Supernatants were collected and then assayed using rat insulin radioimmunoassay kit (RI-13K, Merck Millipore).

SMILES	insulin secretion from MIN6 cells
CC(C)(O)c1coc(S(=O)(=O)NC(=O)Nc2c3c(cc4c2CCC4)CCC3)c1 [CE7, MCC 950]	basal levels of insulin secretion

Target: T2, NLRP3 (Homo sapiens, UniProt Q96P20)
T2 construct: To generate HMDM, human monocytes are isolated from buffy coat blood; endogenous in cells; host or cells: human monocyte-derived macrophages (HMDM) from CD14+ buffy coat monocytes
Experiment: HMDM NLRP3 inflammasome assay, IL-1β secretion (Table 2)
Type: cell-based
Details: human monocyte derived macrophages

T2 sequence (Q96P20 whole entry): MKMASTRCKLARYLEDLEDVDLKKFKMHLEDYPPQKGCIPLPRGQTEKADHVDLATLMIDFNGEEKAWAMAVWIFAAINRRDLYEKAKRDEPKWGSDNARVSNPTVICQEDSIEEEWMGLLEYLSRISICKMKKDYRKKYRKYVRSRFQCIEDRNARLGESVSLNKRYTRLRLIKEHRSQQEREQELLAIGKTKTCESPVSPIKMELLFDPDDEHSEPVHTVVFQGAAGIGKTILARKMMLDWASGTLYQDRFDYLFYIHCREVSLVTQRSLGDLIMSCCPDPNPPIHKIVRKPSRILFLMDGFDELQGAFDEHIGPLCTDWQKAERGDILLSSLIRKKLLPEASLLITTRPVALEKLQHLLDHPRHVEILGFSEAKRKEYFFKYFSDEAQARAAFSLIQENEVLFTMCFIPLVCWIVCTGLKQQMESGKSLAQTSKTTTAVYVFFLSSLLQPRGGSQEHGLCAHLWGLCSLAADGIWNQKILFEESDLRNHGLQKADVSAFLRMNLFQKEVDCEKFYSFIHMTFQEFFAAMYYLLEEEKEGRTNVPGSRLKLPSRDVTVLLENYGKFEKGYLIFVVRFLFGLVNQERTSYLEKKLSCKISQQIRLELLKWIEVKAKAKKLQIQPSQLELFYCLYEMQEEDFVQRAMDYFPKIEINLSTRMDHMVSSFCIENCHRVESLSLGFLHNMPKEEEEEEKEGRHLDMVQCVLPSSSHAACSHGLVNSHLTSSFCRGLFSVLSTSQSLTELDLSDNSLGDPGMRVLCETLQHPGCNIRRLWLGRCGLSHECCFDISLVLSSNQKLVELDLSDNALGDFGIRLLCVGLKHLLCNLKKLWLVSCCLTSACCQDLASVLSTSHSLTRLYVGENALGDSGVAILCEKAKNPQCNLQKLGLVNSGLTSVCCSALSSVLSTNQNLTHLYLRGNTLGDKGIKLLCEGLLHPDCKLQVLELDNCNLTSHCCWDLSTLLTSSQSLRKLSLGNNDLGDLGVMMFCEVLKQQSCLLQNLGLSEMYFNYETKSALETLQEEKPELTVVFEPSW

IC50 [nM]	SMILES
< 1000	O=C(Nc1c2c(cc3c1CCC3)CCC2)NS(=O)(=O)c1cccc(C(=O)O)c1 [Example 10, 3-(N-((1,2,3,5,6,7-Hexahydro-s-indacen-4-yl)carbamoyl)sulfamoyl)-benzoic acid]
< 1000	C#CCNC(=O)CCc1ccc(S(=O)(=O)NC(=O)Nc2c3c(cc4c2CCC4)CCC3)cc1 [Example 13, 3-(4-(N-((1,2,3,5,6,7-Hexahydro-s-indacen-4-yl)carbamoyl)sulfamoyl)-phenyl)-N-(prop-2-yn-1-yl)propanamide]
